Measurements: patent US20250134858A1, “COMPOSITIONS AND METHODS FOR TREATMENT OF NAFLD AND NASH AND RELATED DYSLIPIDEMIAS” (EpicentRx, Inc., priority 2022, published 2025)

Experiments:
Format in all cases: in vivo, rat
[1] = test system: Sprague-Dawley rats fed high-fat atherogenic diet (HFD); experiment: Relative LDL, HDL, TG and TC levels in rats fed a high-fat atherogenic diet
Description: (§1) Sprague-Dawley rats (6-weeks-old male weighing about 180 grams) were randomly divided into three groups. The first group of the rats were subjected to a normal diet (ND) for a time period of 12 weeks. The second and the third group of the rats were subjected to a high-fat atherogenic diet (HFD, 40 kcal % fat, 1.25% cholesterol, 0.5% sodium cholate) for the time period of 12 weeks. The third HFD group of the rats were treated with about 5 mg/kg of RRx-001 every other week for the last 8 weeks before characterization (“HFD-RRx-001”). Several markers of inflammation and steatosis were evaluated.

[2] = test system: NLRP3 inflammasome; experiment: Serum NLRP3, IL-1β and caspase-1 levels (ELISA) in HFD rats; details: about 5 mg/kg every other week for last 8 of 12 weeks
Description: as §1
(§2) In a trial that tested for markers related to NASH, every other week administrations of RRx-001 reduced hepatic steatosis scores, serum ALT and AST levels, and hepatic levels of cholesterol and triglycerides in rats fed the HFD.

[3] = test system: Sprague-Dawley rats fed high-fat atherogenic diet (HFD); experiment: NASH markers in HFD rats: hepatic TG, hepatic TC, steatosis score, serum ALT and AST; details: about 5 mg/kg every other week for last 8 of 12 weeks
Description: as §1, §2

SMILES: O=C(CBr)N1CC([N+](=O)[O-])([N+](=O)[O-])C1 [RRx-001, 2-bromo-1-(3,3-dinitroazetidin-1-yl)ethan-1-one]
- relative amount of LDL ([1]; about 5 mg/kg RRx-001 every other week for last 8 of 12 weeks, ND normalized to 1.0, HFD alone approximately 6, FIG. 1A): approximately 4 times the LDL amount of the ND rats
- relative amount of HDL ([1]; about 5 mg/kg every other week for last 8 of 12 weeks, ND normalized to 1, HFD alone approximately 0.2, FIG. 1B): approximately 0.4 relative to the ND rats
- relative amount of total cholesterol (TC) ([1]; about 5 mg/kg every other week for last 8 of 12 weeks, ND normalized to 1, HFD alone approximately 2.7, FIG. 1D): approximately 1.8 times relative to the ND rats
- relative amount of triglycerides (TG) ([1]; about 5 mg/kg every other week for last 8 of 12 weeks, ND normalized to 1, HFD alone approximately 6.2, FIG. 1C): approximately 4.4 relative to the ND rats
- relative amount of IL-1β ([2]; ND normalized to 1, HFD alone approximately 1.7, FIG. 5B): approximately 1.2 times relative to the amount in the ND rats
- relative amount of serum NLRP3 ([2]; ND normalized to 1, HFD alone approximately 1.75, FIG. 5A): approximately 1.3 times relative to the rats that were fed the ND
- relative amount of caspase-1 ([2]; ND normalized to 1, HFD alone approximately 2.0, FIG. 5C): approximately 1.3 times relative to the rats that were fed the ND
- relative amount of hepatic TC ([3]; ND normalized to 1, HFD alone approximately 4.3, FIG. 3B): approximately 3.8 times relative to the ND rats
- relative amount of hepatic TGs ([3]; ND normalized to 1, HFD alone approximately 8.2, FIG. 3A): approximately 5.7 times relative to the amounts of the ND rats
